This is an account of results in PubChem BioAssay AID2305 (GlaxoSmithKline (GSK), 2010).

The experiment concerns P. falciparum 3D7 growth, pLDH absorbance. The experiment can be described thus: P. falciparum 3D7 growth inhibition, dose response, strain 3D7 (AID 2305).

As a reminder, the IC50 is the concentration at which inhibition is half-maximal. Low readings indicate inhibition by little substance, high ones a need for much substance. In turn, `Cc1cc(F)ccc1-c1nc(NCC(O)CNCCc2ccccc2)nc2c1ccc(=O)n2-c1c(F)cccc1F` (stereo unspecified) registered a half-maximal inhibitory concentration (IC50) of 540 nM.
In turn, `CCCNCc1ccc(-c2ccc(CN(CCOC)C(=O)COc3ccccc3Cl)cc2)nc1` had an IC50 of 910 nM.
The compound `COc1cc(-c2nc(-c3ccc4c(c3)CCC4=NO)c(-c3ccncc3)[nH]2)ccc1OCCN1CCN(C)CC1` registered an IC50 of 760 nM. The IC50 values of the last two compounds are within 1.5-fold of each other.
Consider `O=C(NC1CCCC1)c1cc2c(=O)n3ccccc3nc2nc1NCCc1ccccc1`, for which the IC50 was 650 nM.
The value for `COc1cccc(Nc2nc(C)cc(NC3CCN(Cc4ccccc4)CC3)n2)c1` was 690 nM; that for `O=S(=O)(NCCN1CCCC1)c1ccc(-c2ccc(CNCc3ccc(F)cc3)cc2)cc1` was 790 nM.
`CCOc1cc(C(=O)NC2CCN(Cc3ccccc3)CC2)ccc1-c1nc2cc(Cl)c(Cl)cc2[nH]1` had an IC50 of 470 nM.
Regarding `NOCCCOc1ccccc1`, the IC50 turned out to be 320 nM.
As for `COc1ccc(-c2ccc(Nc3cccc(S(=O)(=O)CCN4CCC(CCN(C)C)CC4)c3)nc2)cn1`, the figure is 1120 nM.
`CN1CCN(c2ccc(Nc3ccnc4ccc(-c5ccccc5)cc34)cc2)CC1` returned an IC50 of 90 nM.
With `CCN(C)CCCn1c(N(C)C)nc2cc(-n3cnc4cc(-c5ccc(Cl)cc5)sc4c3=O)ccc21`, the IC50 was determined as 1090 nM.
`COc1ccc(-c2ccc(NC(=O)c3cccc(Cl)c3)c(F)c2)cc1CN1CCCN(C)CC1`: the IC50 was 680 nM.
For the compound `c1cc2nc(CCc3nc4ccc(C5=N[C@H]6CCCC[C@H]6N5)cc4[nH]3)[nH]c2cc1C1=N[C@@H]2CCCC[C@@H]2N1`, the IC50 was 230 nM.
`CCCCNCc1ccc(-c2nc(CN(Cc3ccc(Cl)c(Cl)c3)C(=O)CN(C)C)cs2)cc1` came in with an IC50 of 800 nM.
For `CC(Sc1nc(-c2ccccc2)c(-c2ccccc2)o1)C(=O)NC1CC1` (stereo unspecified), the IC50 amounted to 840 nM.
In turn, `Nc1nccc2ccc(-c3ccc4nccn4c3)cc12` returned an IC50 of 100 nM.
The value for `Cc1ccccc1C1CCN(C2CCC(NC(=O)/C=C/c3ccc(F)c(F)c3)CC2)CC1` (stereo unspecified) was 950 nM.
For `O=C(Nc1cccnc1)c1cc(C(=O)Nc2cccnc2)cc([N+](=O)[O-])c1`, the IC50 was 1120 nM.
Compound `CCCCCc1cc(O)c2c3c(c(=O)oc2c1)CN(C)CC3` yielded an IC50 of 120 nM.
Turning to `CN1CCCc2ccc(NC(=O)c3ccc(-c4cc(C(F)(F)F)nn4C)s3)cc2C1`, the IC50 was 880 nM.
In turn, `CC(C)c1ccc(CN2CCC(CNC(=O)c3cc(-c4cccc(C(F)(F)F)c4)cs3)C2)cc1` (stereo unspecified) registered an IC50 of 910 nM.
As for `CS(=O)(=O)CCNCc1cccc(-c2cc3c(Nc4ccc(OCc5cccc(F)c5)c(Cl)c4)ncnc3s2)c1`, the figure is 200 nM; as for `CCCCc1cc(NCc2ccncc2)nc(Nc2cccc(OC)c2)n1`, 740 nM; as for `CCCNC[C@@H](O)[C@H](Cc1ccccc1)NC(=O)c1cc2c3c(c1)c(CC)cn3CCS(=O)(=O)N2C`, 100 nM.
Turning to `CC(C)CN1CCCN(Cc2cccc(NC(=O)c3ccc(-c4ccccc4)cc3)c2)CC1`, the IC50 is 880 nM.
With `NC(=NCCCCC1CCCCC1)c1cccc(C(N)=NCCCCC2CCCCC2)n1`, the IC50 came out at 390 nM.
The compound `CC[C@H]1CN2CC[C@H]1C[C@H]2[C@H](O)c1cc(N2CCCC(C(=O)N(CC)CC)C2)nc2ccc(OC)cc12` (stereo partly specified) had an IC50 of 70 nM.
For the compound `Cc1onc(-c2c(F)cccc2Cl)c1C(=O)Nc1ccccc1I`, the IC50 was 950 nM.
`CCC[C@@H]([C@@H](CC1CCCCC1)C(=O)N[C@@H](CCOC(=O)NCC)C(=O)Nc1nccs1)N(O)C=O`: the IC50 stood at 80 nM.
`O=C1COc2ccccc2N1CCN1CCC(NCc2ccc(-c3cccs3)cc2)CC1` showed an IC50 of 1430 nM.
In the case of `CCNc1cc(CCCC(=O)OCC)nc(Nc2ccc(C)cc2)n1`, the IC50 stood at 770 nM.
`CCCCN(CCCC)CCNC(=O)c1ccc(-c2nc3ccc(Cl)cc3[nH]2)c(OCC)c1` had an IC50 of 570 nM.
The value for `O=C(NC1CCN(CCCc2ccccc2)CC1)c1ccc(-c2cccc(C(F)(F)F)c2)s1` was 890 nM.
`COc1ccc(CCN(C)CCCCNC(=O)c2ccc(NC(=O)c3ccc(Cl)cc3)cc2)c(OC)c1` yielded a half-maximal inhibitory concentration (IC50) of 920 nM.
`Oc1ccc(CN2CC[C@@H](N3CCN(CCc4ccccc4)CC3)[C@H](O)C2)cc1Cl`: the IC50 was 870 nM.
Turning to `COc1ccc(NC(=O)[C@H](Cc2ccccc2)Nc2cc(C)nc(NCCc3cccs3)n2)cc1`, the IC50 is 750 nM. This IC50 and that of the compound before are within 1.5-fold of each other.
Consider `COc1ccccc1/C=C/C(=O)NCCC1CCN(CCCCCNC(=O)/C=C/c2ccc(Cl)c(Cl)c2)CC1`, for which the IC50 came to 810 nM.
As for `CC(Sc1nc2sccc2c(=O)n1C)C(=O)Nc1ccc2c(c1)OCO2` (stereo unspecified), the IC50 is 1040 nM.
`CC(=O)Nc1nc(C(=O)Nc2ccc(-c3cccc(-c4nc5c(C)cccc5[nH]4)c3)cc2)cs1` came in with an IC50 of 230 nM.
As for `Cc1cc(NC(=O)NCCN2CCC(NC(=O)c3ccc(C(F)(F)F)cc3)CC2)c2ccccc2n1`, the figure is 410 nM.
The value for `Cc1cccc(CNc2nc(C)cc(N[C@@H](Cc3ccccc3)C(=O)NCCc3ccccc3)n2)c1` was 670 nM; that for `O=C(N[C@@H](Cc1ccccc1)C(=O)NCCN1CCCC1)c1ccc(O)c(-c2ccc(Cl)c(Cl)c2)c1` was 800 nM; that for `CC(CN1CCN(C)CC1)C(=O)Nc1ccc(-c2cccc(-c3nc4ccc(C(F)(F)F)cc4[nH]3)c2)cc1` (stereo unspecified) was 400 nM.
In the case of `O=C(Nc1ccc2c(c1)CCN2C1CCN(Cc2cccc(F)c2F)C1)c1ccco1` (stereo unspecified), the IC50 came to 790 nM. Against the preceding compound, the IC50 is about 2-fold higher.
`O=C(NCCc1ccc(F)cc1)c1ccc(N2CCN(c3ccncc3)CC2)nc1` gave an IC50 of 1420 nM.
Compound `O=[N+]([O-])c1cccc(C(Nc2ccccn2)c2ccc3cccnc3c2O)c1` (stereo unspecified) showed an IC50 of 1330 nM.
As for `COc1ccccc1CCNc1nc(C)cc(N[C@@H](CC(C)C)C(=O)Nc2ccccc2)n1`, the figure is 1280 nM.
`Cc1cc(NC(=O)NCCN2CCC(NC(=O)c3ccc(Cl)cc3)CC2)c2ccccc2n1`: the IC50 worked out at 380 nM.
On to `CN(C)Cc1cccc(CNC(=O)c2sccc2OCc2ccc(Cl)cc2)c1`, for which the IC50 came to 830 nM.
Turning to `CN1CCCC(CN2CCN(Cc3cccc(-c4ccc(-c5nc6ccc(C(F)(F)F)cc6[nH]5)cc4)c3)CC2)C1` (stereo unspecified), the IC50 amounted to 150 nM.
`Cc1nnc(-c2cccc(Nc3ccnc4cc(-c5nccs5)ccc34)c2)o1` registered an IC50 of 630 nM. This IC50 lies about 4.2-fold higher than the previous one.
`c1ccc2c(c1)cc(CNCCCN1CCN(CCCNCc3cc4ccccc4c4ccccc34)CC1)c1ccccc12` came in with an IC50 of 200 nM. Against the preceding compound, the IC50 is about 3.1-fold lower.
Take `Cc1cc2cc(-c3ccc(CN)cc3)ccc2nc1N`: the IC50 turned out to be 1130 nM.
The value for `CCCn1cnc2cc(C(=O)Nc3ccc(-c4cccc(CN(C)C)c4)cc3)ccc2c1=O` was 930 nM.
`NCC1CCCN1Cc1ccc(-c2cccc(-c3nc4ccc(C(F)(F)F)cc4[nH]3)c2)cc1` (stereo unspecified) registered a concentration for half-maximal inhibition (IC50) of 830 nM.
In turn, `Cc1cc(C2CCN(CCCCNC(=O)c3ccc(NC(=O)c4ccc(Cl)cc4)cc3)CC2)c(C)cc1OCCN(C)C` registered an IC50 of 770 nM. The IC50 values of the last two compounds are within 1.5-fold of each other.
In the case of `CCc1cc(CNC2CCN(CCc3c(F)cnc4ccc(OC)nc34)CC2)cc2c1OCCO2`, the IC50 worked out at 260 nM.
In the case of `CCCCCc1cc(O)c2c(c1)OC(C)(C)c1ccncc1-2`, the IC50 was 760 nM.
For the compound `COc1ccc(CC2(c3ccc(F)cc3)N=C(N)N(CCCc3ccccc3)C2=O)cc1` (stereo unspecified), the IC50 was 610 nM.
As for `O=C(NCCCNc1ccc2ccccc2n1)c1cc2c(Cl)cc(Cl)cc2[nH]1`, the IC50 was 600 nM.
`O=C(NC1CC1)c1ccc(N2CCC(Cc3ccccc3)CC2)nc1` came in with an IC50 of 760 nM.
`CSc1nnc2n(Cc3ccccc3)c(=O)c3c(n12)-c1ccccc1CC31CCCCC1` returned an IC50 of 970 nM.
With `CCN(CC)CCN(Cc1ccc(-c2ccc(C#N)cc2)cc1)C(=O)Cn1c(CCc2cccc(F)c2F)nc(=O)c2ccccc21`, the concentration for half-maximal inhibition (IC50) was 10 nM.
In turn, `O=S1(=O)NC2(CCN(CCc3ccc(Cl)cc3)CC2)Nc2cc(F)cc(F)c21` showed an IC50 of 1460 nM.
Compound `CCCOc1ccc(-c2nonc2NC(=O)c2cccc(OC)c2)cc1OCCC` had an IC50 of 1150 nM.
On to `COc1ccc2ncc(F)c(CCN3CC[C@@H](CNCc4cc(C)c5c(c4)OCCO5)C3)c2n1`, for which the IC50 worked out at 890 nM. This IC50 and that of the compound before are within 1.5-fold of each other.
Consider `CN(C)c1ccc(-c2ccc(C(=O)NC3CCN(Cc4cccc(C(F)(F)F)c4)CC3)s2)cc1`, for which the IC50 turned out to be 990 nM.
The compound `O=C(/C=C/c1ccc(Cl)c(Cl)c1)NCCCCCCN1CCN(C(=O)Nc2cc(F)cc(F)c2)CC1` came in with an IC50 of 1070 nM.
`CCN(CC)CCCCNc1cc(-c2[nH]c(-c3c(Cl)cccc3Cl)nc2-c2ccc3cc(OC)ccc3c2)ccn1` returned an IC50 of 960 nM.
Consider `CCCC(=O)c1cnc2cc(O)ccc2c1Nc1ccccc1C`, for which the IC50 worked out at 650 nM. The IC50 values of the last two compounds are within 1.5-fold of each other.
The value for `O=C(Nc1cccc(CN2CCN(C(=O)c3ccccc3)CC2)c1)c1ccco1` was 890 nM; that for `COc1cccc2cc(C(=O)N[C@@H](CC(C)C)C(=O)N[C@H](/C=N/NC(=O)N3CCN(C)CC3)CCc3ccccc3)oc12` was 620 nM; that for `C#CCOc1ccccc1CN1CCC(N2CCc3cc(NC(=O)c4cc(C)on4)ccc32)C1` (stereo unspecified) was 680 nM.
The compound `CCCCN1CCN(CC(O)CNC(=O)Nc2ccc(Cl)cc2)CC1` (stereo unspecified) gave an IC50 of 70 nM.
For `COc1ccc2nccc([C@@H](O)CN3CCC(NC(=O)c4cc5c(F)cc(F)cc5[nH]4)CC3)c2n1`, the 50% inhibitory concentration (IC50) was 1390 nM. Against the preceding compound, the IC50 is about 20-fold higher.
In the case of `Nc1c(I)cc(C(=O)Nc2ccc3nc4c(c(N)c3c2)CCCC4)cc1I`, the IC50 is 140 nM.
Take `CC(C)N1CCN(CCCNc2c3ccccc3nc3ccccc23)CC1`: the IC50 was determined as 230 nM.
In turn, `CCC(C)NS(=O)(=O)c1ccc2nc(Nc3cccc(SC)c3)n(C(C)C(C)C)c2c1` (stereo unspecified) had an IC50 of 500 nM.
For `COc1ccc2nccc([C@@H](O)CN3CCC(NCc4nc5cc(F)ccc5o4)CC3)c2c1`, the concentration for half-maximal inhibition (IC50) was 150 nM. Compared with the last compound, the IC50 is about 3.3-fold lower.
The compound `Clc1ccc(CNc2nc(NCCc3cnc[nH]3)nc(NC3CCCCC3)n2)cc1` had an IC50 of 210 nM.
Take `O=C(NCCCCNCC(Cc1cccc(O)c1)c1ccccc1)c1ccc(NC(=O)c2ccc(Cl)cc2)cc1` (stereo unspecified): the IC50 is 1040 nM.
On to `COc1ccc(Cn2c(Nc3cccc(C(F)(F)F)c3)nc3cc(C(=O)NC(C)C)cnc32)cc1Cl`, for which the IC50 stood at 970 nM.
For the compound `O=C(NCCN1CCC(NC(=O)c2ccc(-c3ccccn3)s2)CC1)c1cccc(C(F)(F)F)c1`, the IC50 is 860 nM.
`CCN(CCCN1CCCCC1)c1cc(C)nc(Nc2ccc(Br)cc2F)n1` showed an IC50 of 550 nM.
With `CC(C)c1ccc(C2CCN(CCCCNC(=O)c3ccc(NC(=O)c4ccc(C(F)(F)F)cc4)cc3)CC2)c(O)c1`, the IC50 was 580 nM.
`O=C(Nc1ccc2c(c1)CCC2)c1ccc(CN2CCCN(Cc3cccc(O)c3)CC2)cc1`: the IC50 was 890 nM.
